Laboratory results from US10285936B2, “Injectable composition with aromatase inhibitor” (Laboratorios Farmacéuticos Rovi, S.A., priority 2010, dated 2019).
Like-named read-outs stand apart in the source and are kept apart here.

Assays:
[1] = Letrozole particle size distribution by laser diffraction (Malvern Mastersizer 2000); type: physicochemical; conditions: % volume; suspended in water until obscuration of 9.41%
Experimental: If not otherwise specified, the particle size distribution was determined by light scattering technique using laser light diffraction in wet mode. It is known that particle size distribution results can be altered as a function of the material treatment such the use of high concentrate surfactant agents and/or strong force energies (vortex, sonication, etc). If nothing else is mentioned, drug is not treated and samples are prepared by direct addition to the tank under moderate stirring (2000-3500 rpm). The methodology applied on present invention to determine the drug particle size distribution mimics in a more faithfully way the behavior of the drug powder on the injectable formulation herein described than other methods which apply force energies to the sample and/or use high concentrate surfactant agents for preparing the samples in order to achieve high degrees of powder disaggregation that cannot be simulated during the manual reconstitution process of the formulation.
Letrozole particle size in formulation 2 was characterized by the technique of laser ray diffraction (Malvern Mastersizer 2000, suspended in water until obscuration of 9.41%) and had the following distribution (in % volume): d(0.1)=38.21 μm, d(0.5)=141.35 μm and d(0.9)=312.13 μm.

[2] = type: in vitro ADME; conditions: for stability of samples at room temperature: 6 h; for storage of processed samples without change in precision and accuracy: 24 h; for long term stability of samples: 132 days
Experimental: For quantification of letrozole in dog and rabbit plasma a technique based on high performance liquid chromatography with fluorescence detector HPLC-FLD […] using a liquid-liquid extraction with […] as the organic solvent and resuspension for analysis in reverse phase with isocratic elution. Carvedilol was used as the internal standard and the process time was 8.5 min with a letrozole retention time of 7.8 min and applying wavelengths of 240 nm (λ excitation) and 315 nm (λ emission). The validated concentration interval was from 5 (LLOQ) to 500 ng/mL, that is with a lower limit of quantification or minimum quantifiable analyte concentration of the analytical technique of 5 ng/mL and a maximum validated concentration of 500 ng/mL. Calibration curves obtained were characterized with a correlation coefficient of over 0.99. Precision and intra-assay and inter-assay accuracy was less than 20% for the LLOQ and less than 15% for the other QCs, that is, of the other known concentration samples used as quality controls in conducting the analysis. The bioanalytical method was validated over three days and the results met the acceptance criteria described in the FDA guide: “Bioanalytical Method Validation”.
Processed samples could be stored in the sampler at 4° C. for 24 hours without noticing any change in the precision and accuracy of the analysis.

d(0.1) [1]: 38.21 μm
d(0.5) [1]: 141.35 μm
d(0.9) [1]: 312.13 μm
effect of cycles of freezing/thawing on stability ([2]; dog): did not affect the stability
stability of samples at room temperature ([2]; dog): up to 6 hours
storage of processed samples without change in precision and accuracy ([2]; dog): 24 h
long term stability of samples ([2]; dog): 132 days
effect of cycles of freezing/thawing on stability ([2]; rabbit): did not affect the stability
stability of samples at room temperature ([2]; rabbit): up to 6 hours
storage of processed samples without change in precision and accuracy ([2]; rabbit): 24 h
long term stability of samples ([2]; rabbit): 132 days
SMILES: N#Cc1ccc(C(c2ccc(C#N)cc2)n2cncn2)cc1 [Letrozole, 4,4′-(1,2,4-triazol-1-ylmethyl)dibenzonitrile]
